{"source": "patent US7977371B2", "about": "“Pyrrole derivative having ureido group and aminocarbonyl group as substituents” (Santen Pharmaceutical Co., Ltd., priority 2007, dated 2011)", "key": {"[1]": {"system": "TNF-α-induced IL-6 production in normal human skin fibroblast-derived CCD-1059Sk cells", "assay": "Test for measurement of inhibitory activity against TNF-α-induced IL-6 production", "type": "cell-based", "conditions": "Homo sapiens, CCD-1059Sk, 16 h, test compound at 10 μM, TNF-α stimulation 16 hours, inhibition ratio of 100% or more is indicated as 100%", "experimental": "1. Test for Measurement of Inhibitory Activity Against IL-6 Production\nAn inhibitory effect on TNF-α-induced IL-6 production in normal human skin fibroblast-derived CCD-1059Sk cells (ATCC No. CRL-2072) was evaluated. The amount of IL-6 was determined by the homogeneous time-resolved fluorescence method using HTRF™ Human IL-6 kit (Cat. No. 62IL6PEB, manufactured by CIS-Bio international, Inc.). Specific test methods will be described below.\n(Preparation of Test Compound Solution)\nAfter a test compound was dissolved in dimethyl sulfoxide, the resulting solution was diluted with D-MEM medium containing 0.1% heat-inactivated fetal bovine serum, 0.1 mM MEM non-essential amino acid solution, 100 U/mL penicillin and 100 μg/mL streptomycin (hereinafter referred to as “medium”), whereby a 40 μM test compound solution was prepared.\n(Test Method and Measurement Method)\n1) CCD-1059Sk cells prepared at a density of 3×10^5 cells/mL were inoculated in a 384-well plate in an amount of 10 μL per well such that the cell density was 3×10^3 cells/well.\n2). After the plate was incubated at 37° C. for several hours in a CO2 incubator, 5 μL of the test compound was added to each well.\n3) After the plate was incubated at 37° C. for 1 hour in a CO2 incubator, 5 μL of a 40 ng/mL TNF-α solution was added to each well.\n4) After the plate was incubated at 37° C. for 16 hours in a CO2 incubator, 10 μL of a cryptate-labeled anti-IL-6 antibody and an XL665-labeled anti-IL-6 antibody containing potassium fluoride was added to each well.\n5) After the plate was incubated at room temperature for several hours, a fluorescence intensity ratio (665 nm/620 nm) was determined for each well using a multimode plate reader Analyse™ HT (manufactured by Molecular Device Corporation) and Criterion Host software version 2.00 (manufactured by Molecular Device Corporation), and then, the amount of IL-6 was calculated.\n6) The same procedures as in the above 1) to 5) were performed except that 0.4% dimethyl sulfoxide was added in place of the test compound, and the obtained result was designated as the control.\n7) The same procedures as in the above 1) to 5) were performed except that 0.4% dimethyl sulfoxide and the medium were added in place of the test compound and the TNF-α solution, respectively, and the obtained result was designated as the background.\n(Calculation Formula of IL-6 Production Inhibition Ratio)\nAn IL-6 production inhibition ratio (%) was calculated from the following formula. IL-6 Production Inhibition Ratio (%)=100×{1−[(Amount of IL-6 for Test Compound)−(Amount of IL-6 for Background)/(Amount of IL-6 for Control)−(Amount of IL-6 for Background)]} (Evaluation Results)"}, "[2]": {"system": "choroidal neovascularization induced by krypton laser irradiation", "assay": "Evaluation test for inhibitory effect on choroidal neovascularization (rat model induced by krypton laser irradiation)", "type": "in vivo, Brown Norway rat", "conditions": "po, 168 h, 30 mg/kg/day orally once a day for 7 days (day 0 to day 6), fluorescein fundus angiography on day 7, versus vehicle administration group, average of 5 to 8 eyes of 3 to 4 rats, read-out: Ratio of incidence of neovascularization (% of control)", "text": "2. Evaluation Test for Inhibitory Effect on Choroidal Neovascularization\nAs one of the methods widely used for evaluating an inhibitory effect on choroidal neovascularization, a rat model of choroidal neovascularization induced by krypton laser irradiation has been reported in Graefe's Arch. Cli. Exp. Ophthalmol., 235, 313-319 (1997). According to the method described in this document, a ratio of incidence of choroidal neovascularization of a present compound administration group to that of a vehicle administration group was calculated using the rat model of choroidal neovascularization, and an inhibitory effect of the present compound on choroidal neovascularization was evaluated using the calculated value as an index. Specific test methods will be described below.\n(Preparation of Administration Liquid of Test Compound)\nA test compound was suspended in a 1% aqueous methyl cellulose solution, whereby a 6 mg/mL test compound suspension was prepared.\n(Preparation of Rat Model of Choroidal Neovascularization Induced by Krypton Laser)\n1) To a Brown Norway rat (male, 7 to 8 weeks of age), a mixed solution of a 5% ketamine hydrochloride injection solution and a 2% xylazine hydrochloride injection solution (7:1) was intramuscularly administered at a dose of 1 mL/kg to effect systemic anesthesia.\n2) After a 0.5% tropicamide-0.5% phenylephrine hydrochloride eye drop was instilled into the eyes to cause mydriasis, photocoagulation was performed using a krypton laser photocoagulation apparatus (MC-7000, manufactured by NIDEK Co., Ltd.). The krypton laser irradiation was performed at eight spots per eye sparsely by focusing on the retinal deep layer avoiding large retinal vessels in a posterior section of ocular fundus. The photocoagulation conditions were set such that the spot size was 100 μm, the output was 100 mW and the coagulation time was 0.1 sec.\n3) After the photocoagulation, the ocular fundus photography was performed (PRO III, manufactured by Kowa Company, Ltd.) to confirm the photocoagulation (krypton laser irradiation) sites.\n(Administration Method of Test Compound)\n1) The test compound suspension (30 mg/kg/day) was orally administered once a day for 7 consecutive days from the day of krypton laser irradiation (day 0) until day 6.\n2) A 1% aqueous methyl cellulose solution was administered in the same manner as in 1) in place of the test compound suspension, and the obtained result was designated as the vehicle administration group.\n1). On day 7 after the photocoagulation, 0.1 mL of a 10% aqueous fluorescein solution was injected into the tail vein, and fluorescein fundus angiography was performed (PRO III, manufactured by Kowa Company, Ltd.).\n2) In the fluorescein fundus angiography, a spot where fluorescence leakage was not observed was determined to be negative and a spot where fluorescence leakage was observed was determined to be positive. With respect to photocoagulation sites where a little fluorescence leakage was observed, in the case where there were two such photocoagulation sites, it was determined to be positive.\n(Calculation Formula of Incidence of Neovascularization)\nAn incidence (%) of neovascularization of each administration group and a ratio of incidence of neovascularization of the test compound administration group to that of the vehicle administration group were calculated from the following formulae, respectively. Incidence of Neovascularization of Each Administration Group (%)=[(Number of Positive Photocoagulation. Sites)/(Number of Total Photocoagulation Sites)]×100 Ratio of Incidence of Neovascularization of Test Compound Administration Group to that of Vehicle Administration Group (% of Control)=[(Incidence of Neovascularization of Test Compound Administration Group)/(Incidence of Neovascularization of Vehicle Administration Group)]×100 (Evaluation Results)"}}, "data": [{"molecule": "CCCOc1ccc(Cl)cc1-c1cc(C(N)=O)c(NC(N)=O)[nH]1", "note": "[Compound 4-37, 2-Aminocarbonylamino-5-(5-chloro-2-propyloxyphenyl)pyrrole-3-carboxamide]", "values": [{"measurement": "inhibition at 10 µM", "setting": "[1]", "value": 97, "unit": "%"}, {"measurement": "response vs control in vivo at 30 mg/kg", "setting": "[2]", "value": 69, "unit": "%"}]}, {"molecule": "CCCOc1ccc(F)cc1-c1cc(C(N)=O)c(NC(N)=O)[nH]1", "note": "[Compound 4-34, 2-Aminocarbonylamino-5-(5-fluoro-2-propyloxyphenyl) pyrrole-3-carboxamide]", "values": [{"measurement": "inhibition at 10 µM", "setting": "[1]", "value": 100, "unit": "%"}, {"measurement": "response vs control in vivo at 30 mg/kg", "setting": "[2]", "value": 75, "unit": "%"}]}, {"molecule": "NC(=O)Nc1[nH]c(-c2ccc(F)cc2)cc1C(N)=O", "note": "[Compound 1-8, 2-Aminocarbonylamino-5-(4-fluorophenyl) pyrrole-3-carboxamide]", "values": [{"measurement": "inhibition at 10 µM", "setting": "[1]", "value": 93, "unit": "%"}, {"measurement": "response vs control in vivo at 30 mg/kg", "setting": "[2]", "value": 31, "unit": "%"}]}, {"molecule": "CCCOc1ccccc1-c1cc(C(N)=O)c(NC(N)=O)[nH]1", "note": "[Compound 4-4, 2-Aminocarbonylamino-5-(2-propyloxyphenyl) pyrrole-3-carboxamide]", "values": [{"measurement": "inhibition at 10 µM", "setting": "[1]", "value": 90, "unit": "%"}, {"measurement": "response vs control in vivo at 30 mg/kg", "setting": "[2]", "value": 71, "unit": "%"}]}, {"molecule": "NC(=O)Nc1[nH]c(-c2cc(F)ccc2OCCO)cc1C(N)=O", "note": "[Compound 4-54, 2-Aminocarbonylamino-5-[5-fluoro-2-(2-hydroxyethyloxy)phenyl]pyrrole-3-carboxamide]", "values": [{"measurement": "inhibition at 10 µM", "setting": "[1]", "value": 96, "unit": "%"}, {"measurement": "response vs control in vivo at 30 mg/kg", "setting": "[2]", "value": 86, "unit": "%"}]}, {"molecule": "NC(=O)Nc1[nH]c(-c2cccc(Cl)c2)cc1C(N)=O", "note": "[Compound 1-25, 2-Aminocarbonylamino-5-(3-chlorophenyl) pyrrole-3-carboxamide]", "values": [{"measurement": "inhibition at 10 µM", "setting": "[1]", "value": 99, "unit": "%"}, {"measurement": "response vs control in vivo at 30 mg/kg", "setting": "[2]", "value": 52, "unit": "%"}]}, {"molecule": "N#CCOc1ccc(Cl)cc1-c1cc(C(N)=O)c(NC(N)=O)[nH]1", "note": "[Compound 4-43, 2-Aminocarbonylamino-5-(5-chloro-2-cyanomethyloxyphenyl)pyrrole-3-carboxamide]", "values": [{"measurement": "inhibition at 10 µM", "setting": "[1]", "value": 99, "unit": "%"}, {"measurement": "response vs control in vivo at 30 mg/kg", "setting": "[2]", "value": 57, "unit": "%"}]}, {"molecule": "COc1ccccc1-c1cc(C(N)=O)c(NC(N)=O)[nH]1", "note": "[Compound 1-9, 2-Aminocarbonylamino-5-(2-methoxyphenyl) pyrrole-3-carboxamide]", "values": [{"measurement": "inhibition at 10 µM", "setting": "[1]", "value": 100, "unit": "%"}, {"measurement": "response vs control in vivo at 30 mg/kg", "setting": "[2]", "value": 40, "unit": "%"}]}]}
